TGI data for 13 compounds are collected here from PubChem BioAssay (NCI).

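Following 48 hours of exposure in 96-well plates, responses at five concentrations were used to interpolate endpoints linearly. TGI is the concentration that stops growth completely.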

Some test systems named below: 786-0 renal; HCT-15 colon; LOX IMVI melanoma; NCI-H522 lung; OVCAR-4 ovarian; PC-3 prostate; SF-268 CNS; UACC-257 melanoma; UACC-62 melanoma; MALME-3M melanoma; SF-295 CNS; EKVX NSCLC.
Common to all, as to experiment: DTP human tumour cell line panel, 48 h

Take `COc1cc(OC)cc(-n2c(N)c(-c3nc4ccccc4n3C)c3ccc([N+](=O)[O-])cc3c2=O)c1`: the TGI (usually the concentration giving total growth inhibition) in the assay with 786-0 renal was over 100 µM; in the assay with HCT-15 colon it was over 100 µM; in the assay on LOX IMVI melanoma, over 100 µM; in the assay with NCI-H522 lung, over 100 µM; in the assay on OVCAR-4 ovarian, 88.4 µM; with PC-3 prostate, over 100 µM. Moreover, the TGI in the assay with SF-268 CNS, with UACC-257 melanoma and in the assay with UACC-62 melanoma was over 100 µM in each case.
For the compound `CCCCCn1c(=O)c2c(=O)[nH][nH]c2c2ccccc21`, the TGI with 786-0 renal, in the assay on HCT-15 colon, in the assay with LOX IMVI melanoma, with MALME-3M melanoma, in the assay with NCI-H522 lung and in the assay on OVCAR-4 ovarian was over 100 µM each time. Also, the TGI in the assay with PC-3 prostate, in the assay on SF-268 CNS, in the assay with SF-295 CNS, with UACC-257 melanoma and in the assay with UACC-62 melanoma was over 100 µM each time.
In the case of `CN(C)C(=O)C(F)(F)C(c1ccc(Br)cc1)C1C(=O)N(C)C(=O)N(C)C1=O` (stereo not drawn), the TGI in the assay on 786-0 renal, in the assay with EKVX NSCLC, in the assay with HCT-15 colon, in the assay on LOX IMVI melanoma, in the assay on OVCAR-4 ovarian and in the assay with PC-3 prostate was over 100 µM in each case. Moreover, the TGI in the assay with SF-268 CNS, with SF-295 CNS, in the assay on UACC-257 melanoma and in the assay with UACC-62 melanoma was over 100 µM throughout.
Regarding `O=C(N/N=C/c1ccc(Cl)cc1)c1cc(I)cc(I)c1O`, the concentration for total growth inhibition (TGI) in the assay on 786-0 renal, with EKVX NSCLC, in the assay on HCT-15 colon, in the assay on LOX IMVI melanoma, in the assay with OVCAR-4 ovarian and in the assay on PC-3 prostate was over 100 µM throughout. For the same compound, the TGI in the assay on SF-295 CNS and with UACC-257 melanoma was over 100 µM each time.
With `O=C1NC2CCCCC2N=C1/C(C(=O)c1ccccc1)=C(\O)c1ccccc1` (stereo not drawn), the TGI in the assay with 786-0 renal is over 100 µM; with EKVX NSCLC it was over 100 µM; in the assay with HCT-15 colon it was over 100 µM; in the assay with LOX IMVI melanoma, over 100 µM; in the assay with MALME-3M melanoma it was over 100 µM; with NCI-H522 lung, 61.9 µM. The TGI in the assay with PC-3 prostate is over 100 µM; in the assay with SF-268 CNS it was over 100 µM; in the assay with SF-295 CNS it was over 100 µM; with UACC-257 melanoma, over 100 µM; in the assay on UACC-62 melanoma, 68.9 µM.
As to `COP(=O)(OC)C(NC=O)P(=O)(OC)OC`, the total growth inhibition concentration (TGI) in the assay on 786-0 renal, in the assay with EKVX NSCLC, in the assay with HCT-15 colon, in the assay with LOX IMVI melanoma, in the assay with MALME-3M melanoma and in the assay on OVCAR-4 ovarian was over 100 µM in each case. Moreover, the concentration for total growth inhibition (TGI) with PC-3 prostate, in the assay on SF-268 CNS, in the assay on SF-295 CNS and with UACC-62 melanoma was over 100 µM each time.
In the case of `CC1C2CC(C/C2=N/O)C1(C)C` (stereo not drawn), the TGI in the assay with 786-0 renal, with EKVX NSCLC, in the assay on MALME-3M melanoma, in the assay on NCI-H522 lung, with OVCAR-4 ovarian and in the assay with PC-3 prostate was over 100 µM in each case. Also, the TGI with SF-268 CNS, in the assay with SF-295 CNS, in the assay on UACC-257 melanoma and in the assay on UACC-62 melanoma was over 100 µM each time.
In the case of `C[C@@H]1CC[C@@H](C)[C@](C)(CCc2ccoc2)C/C=C\C=C/1C(=O)O`, the total growth inhibition concentration (TGI) with 786-0 renal, in the assay on EKVX NSCLC, in the assay on HCT-15 colon, in the assay on LOX IMVI melanoma, with MALME-3M melanoma and in the assay on OVCAR-4 ovarian was over 50 µM in each case. Moreover, the TGI in the assay on PC-3 prostate, in the assay with SF-295 CNS, with UACC-257 melanoma and in the assay with UACC-62 melanoma was over 50 µM throughout.
With `O=C1c2ccccc2-c2nc(-c3ccccc3)cc3c2c1nc1ccccc13`, the concentration for total growth inhibition (TGI) was over 100 µM in the assay on 786-0 renal; 88.3 µM in the assay with EKVX NSCLC; 28.5 µM with HCT-15 colon; 10 µM in the assay with LOX IMVI melanoma; 12.8 µM in the assay with MALME-3M melanoma; over 100 µM in the assay with OVCAR-4 ovarian. Further, the TGI with PC-3 prostate was 32.3 µM; in the assay with SF-268 CNS, 65.7 µM; in the assay on SF-295 CNS it was 27.6 µM; with UACC-257 melanoma it was 30.6 µM; in the assay on UACC-62 melanoma, 9.7 µM.
`O/N=C1\CCc2nonc2\C1=N/Nc1ccccc1`: the total growth inhibition concentration (TGI) in the assay with 786-0 renal, with EKVX NSCLC, in the assay on HCT-15 colon, in the assay on LOX IMVI melanoma, in the assay on MALME-3M melanoma and in the assay on OVCAR-4 ovarian was over 100 µM throughout. Besides, the TGI with PC-3 prostate, in the assay on SF-268 CNS, in the assay on SF-295 CNS, with UACC-257 melanoma and in the assay on UACC-62 melanoma was over 100 µM each time.
As for `N#CC1(c2ccccc2)CCN(C2(c3ccccc3)CCCCC2)CC1`, the concentration for total growth inhibition (TGI) in the assay with 786-0 renal, in the assay on EKVX NSCLC, in the assay with HCT-15 colon, with LOX IMVI melanoma, in the assay on MALME-3M melanoma and in the assay on OVCAR-4 ovarian was over 100 µM in each case. The TGI in the assay with PC-3 prostate, with SF-268 CNS, in the assay with SF-295 CNS, with UACC-257 melanoma and with UACC-62 melanoma was over 100 µM each time.
Regarding `CC(=O)C12C[C@](C#N)(N3CCCCCC3)C1C=Cc1ccccc12` (stereo partly drawn), the TGI with 786-0 renal, in the assay with EKVX NSCLC, in the assay with HCT-15 colon, in the assay with NCI-H522 lung, with OVCAR-4 ovarian and in the assay with PC-3 prostate was over 100 µM in each case. Further, the TGI in the assay with SF-268 CNS, with SF-295 CNS, in the assay on UACC-257 melanoma and in the assay with UACC-62 melanoma was over 100 µM throughout.
For the compound `Cc1c(C#N)c2nnn(-c3ccccc3)c(=O)n2c1-c1ccccc1`, the total growth inhibition concentration (TGI) with 786-0 renal is 30.1 µM; in the assay on EKVX NSCLC, over 34.5 µM; with HCT-15 colon, over 100 µM; in the assay on LOX IMVI melanoma, over 100 µM; in the assay on MALME-3M melanoma, over 100 µM; in the assay with OVCAR-4 ovarian, over 100 µM. The TGI is over 100 µM with PC-3 prostate; over 100 µM with SF-268 CNS; 8.53 µM with SF-295 CNS; over 100 µM in the assay with UACC-257 melanoma; over 100 µM in the assay on UACC-62 melanoma.
